Measured values reported in paper PMC12209172, “Poly(ADP-ribose)polymerase 2 is zinc-dependent enzyme and nucleosome reorganizer” (Cellular and Molecular Life Sciences: CMLS, 2025).
pKd: −log10 of the molar value. Values joined by “and” are separate entries in the source; they are usually repeats but may differ in a detail not shown here. Identical values can stand only once.

Columns and labels:
[1] = biological target: T1, WGR domain of PARP2 (Homo sapiens, UniProt Q9UGN5); assay: Tryptophan fluorescence spectroscopy of the WGR domain titrated with divalent cations (one site binding fit); conditions: for fluorescence intensity (Fig 3d): listed as Zn
T1 construct: WGR domain of PARP2 (residues 77–220) into pET-15b-TEV expression vector; 6xHis (pET-15b-TEV) (N, cleaved yes); made in house; host or cells: Escherichia coli Rosetta2 (DE3) pLysS
Experimental: Fluorescence spectra of Trp residues were measured in the 300–450 nm spectral range at the 270 nm excitation wavelengths using the Cary Eclipse spectrofluorometer (Varian/Agilent, USA).
Fluorescence of WGR domain was measured at 0.5 or 5 µM in a buffer containing 10 mM HEPES (pH 8.0), 150 mM NaCl and 0.73 or 7.3 µM EDTA, respectively. Solutions were complemented with ZnCl2 (0.2–308 µM) or MgCl2 (15–5000 µM), or CaCl2 (8–5000 µM) dissolved in a buffer containing 10 mM HEPES (pH 8.0), 150 mM NaCl. Intensity of the measured spectra was corrected for the concomitant dilution of the WGR domain. Integral intensities (Ifl.) of fluorescence spectra were averaged over three independent measurements (mean ± SEM) and used to plot the corresponding Ifl. vs. ion concentration graphs. Data were fitted with the one site binding equation:2 [drawing 2]
Where C is the concentration of divalent cations, Kd is a dissociation constant of the complex, Im and Ifl0 are maximal and initial values of Ifl., respectively.

[2] = biological target: T2, PARP2-nucleosome complexes (Mus musculus, UniProt O88554); assay: spFRET microscopy in solution of nucleosomes and PARP2-nucleosome complexes; conditions: for EPR centre of the structural state of nucleosomes: PARP2 plus 0.3 mM Zn2+
T2 construct: Recombinant mouse full-length PARP2 was obtained in the baculovirus expression system; made in house; host or cells: PARP2: Sf9 insect cells (baculovirus), gift of Prof; O. Lavrik; nucleosomes assembled in house
Experimental: In the study of nucleosome-PARP2 interactions, nucleosomes (1-2 nM) were incubated with PARP2 (12.5-200 nM) in buffer A (50 mM Tris-HCl pH 7.5; 40 mM NaCl; 0.5 mM β-mercaptoethanol (β-ME); 0.1% NP40) at 25 °C for 30 min. When indicated, buffer A was supplemented with 50 μM - 5 mM ZnCl2, 5 mM CaCl2 or 5 mM MgCl2. […] […] measurements in solution were performed as described previously. Each measured single nucleosome was characterized by FRET between Cy3 and Cy5 labels calculated as a proximity ratio (EPR):1 [drawing 1] Where I3 and I5 are fluorescence intensities of Cy3 and Cy5, respectively, and coefficients 0.19 and 0.81 provide correction for the spectral cross-talk between Cy3 and Cy5 detection channels. EPR is a FRET efficiency not corrected for quantum yields of labels and an instrumentation factor. Relative frequency distributions of nucleosomes by EPR values, i.e. EPR profiles, (2000-5000 nucleosomes per experiment; 3 independent experiments) were plotted and further analyzed as a superposition of several normal (Gaussian) distributions for nucleosomes or nucleosome-PARP2 complexes. Since nucleosomes tend to aggregate when PARP2 is added (especially at high concentrations), treatment of signals measured from nucleosomes and their complexes included mandatory rejection of signals from any aggregates that are clearly recognized due to their slow diffusion rate and/or abnormally high fluorescence intensity.

[3] = biological target: PARP2 (Mus musculus, UniProt O88554); assay: Circular dichroism spectroscopy of PARP2 (BeStSel secondary structure analysis); design: Recombinant mouse full-length PARP2 was obtained in the baculovirus expression system; made in house; host or cells: Sf9 insect cells (baculovirus); gift of Prof; O. Lavrik; conditions: 0.3 mM Zn2+, 0.7 mM Ca2+ or 0.7 mM Mg2+
Experimental: CD spectra of proteins were recorded within the 190-250 nm spectral range with 0.2 nm step using Jasco-810 spectrophotometer (Jasco, Japan) and the quartz […]® cuvette of 0.1 mm thickness (Hellma, Germany. Secondary structure analysis was performed using BeStSel webserver. To improve the reliability of the analysis, the content of canonical secondary structures of various types was predicted for 3-6 independent measurements, and the values were averaged. The statistical significance of the secondary structure difference was determined using the multiple t-test.

T1 sequence (Q9UGN5 77-220): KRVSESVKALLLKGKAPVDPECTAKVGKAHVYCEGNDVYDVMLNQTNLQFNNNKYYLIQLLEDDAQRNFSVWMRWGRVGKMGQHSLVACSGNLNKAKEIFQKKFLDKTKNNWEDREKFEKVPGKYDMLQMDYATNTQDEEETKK
PARP2, sequence (O88554 whole entry): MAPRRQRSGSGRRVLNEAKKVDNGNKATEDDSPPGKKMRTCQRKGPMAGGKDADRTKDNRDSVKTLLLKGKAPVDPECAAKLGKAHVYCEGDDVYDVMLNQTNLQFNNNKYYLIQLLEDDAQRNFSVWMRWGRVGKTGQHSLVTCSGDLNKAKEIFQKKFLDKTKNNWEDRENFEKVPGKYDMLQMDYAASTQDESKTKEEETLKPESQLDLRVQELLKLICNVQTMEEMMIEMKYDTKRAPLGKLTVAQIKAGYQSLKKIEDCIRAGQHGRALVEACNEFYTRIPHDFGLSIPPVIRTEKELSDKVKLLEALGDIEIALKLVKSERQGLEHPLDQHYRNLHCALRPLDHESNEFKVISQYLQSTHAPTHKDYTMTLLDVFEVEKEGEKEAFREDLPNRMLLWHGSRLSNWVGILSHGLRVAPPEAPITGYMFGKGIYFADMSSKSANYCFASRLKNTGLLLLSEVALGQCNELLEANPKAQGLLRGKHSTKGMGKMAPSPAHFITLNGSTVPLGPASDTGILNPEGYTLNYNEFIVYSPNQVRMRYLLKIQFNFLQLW

With `[Cl-].[Cl-].[Zn+2]` [Zn2+, ZnCl2] the “Zn2+ concentration at which changes in the fluorescence of Trp residues of the WGR domain were observed” value ([1]; Figure S4) was 0.4 to 5 µM, the pKd ([1]; Trp fluorescence, one site binding fit, 10 mM HEPES pH 8.0, 150 mM NaCl, residual EDTA present, read-out: dissociation constant of the divalent cation-WGR domain complex) was 5.70 and ~5.70 and the “effect of ions on intensity of tryptophan fluorescence of the WGR domain” value ([1]; WGR domain 5 µM) was “considerably increased”. The “fluorescence intensity (Fig 3d)” value ([1]; wavelength 330.000, 5.9 uM Zn) was 64.607 and 70.927 and 88.925 and 69.072, the “fluorescence intensity (Fig 3d)” value ([1]; wavelength 330.000, 11.6 uM Zn) was 118.714 and 102.531 and 101.352 and 109.279 and the “fluorescence intensity (Fig 3d)” value ([1]; wavelength 330.000, 17.2 uM) was 125.078 and 114.327 and 116.086 and 114.151. For the same molecule, the “fluorescence intensity (Fig 3d)” value ([1]; wavelength 330.000, 22.1 uM) was 125.812 and 115.097 and 117.722 and 114.227, the “fluorescence intensity (Fig 3d)” value ([1]; wavelength 330.000, 303 uM + 7 mM EDTA) was 42.022 and 51.928 and 42.125 and 50.264 and the “fluorescence intensity (Fig 3d)” value ([1]; wavelength 330.000, 308 uM) was 125.859 and 119.818 and 119.168 and 117.804. The “fluorescence intensity (Fig 3d)” value ([1]; wavelength 331.070, 5.9 uM Zn) was 65.518 and 73.717 and 91.313 and 71.214, the “fluorescence intensity (Fig 3d)” value ([1]; wavelength 331.070, 11.6 uM Zn) was 121.141 and 105.018 and 103.680 and 111.886 and the “fluorescence intensity (Fig 3d)” value ([1]; wavelength 331.070, 17.2 uM) was 128.785 and 116.958 and 116.866 and 116.180. For the same molecule, the “fluorescence intensity (Fig 3d)” value ([1]; wavelength 331.070, 22.1 uM) was 127.402 and 115.749 and 117.457 and 117.342, the “fluorescence intensity (Fig 3d)” value ([1]; wavelength 331.070, 303 uM + 7 mM EDTA) was 42.915 and 54.693 and 43.072 and 51.479 and the “fluorescence intensity (Fig 3d)” value ([1]; wavelength 331.070, 308 uM) was 129.366 and 122.539 and 123.005 and 119.729. For the same molecule, the “fluorescence intensity (Fig 3d)” value ([1]; wavelength 332.000, 5.9 uM Zn) was 66.418 and 75.386 and 92.296 and 72.347, the “fluorescence intensity (Fig 3d)” value ([1]; wavelength 332.000, 11.6 uM Zn) was 123.485 and 106.394 and 106.147 and 113.513 and the “fluorescence intensity (Fig 3d)” value ([1]; wavelength 332.000, 17.2 uM) was 128.874 and 118.064 and 118.851 and 118.214. The “fluorescence intensity (Fig 3d)” value ([1]; wavelength 332.000, 22.1 uM) was 131.124 and 117.614 and 119.985 and 119.070, the “fluorescence intensity (Fig 3d)” value ([1]; wavelength 332.000, 303 uM + 7 mM EDTA) was 43.600 and 54.088 and 43.890 and 52.288 and the “fluorescence intensity (Fig 3d)” value ([1]; wavelength 332.000, 308 uM) was 130.593 and 122.360 and 123.201 and 121.123. For the same molecule, the “fluorescence intensity (Fig 3d)” value ([1]; wavelength 333.070, 5.9 uM Zn) was 68.103 and 76.819 and 93.790 and 71.930, the “fluorescence intensity (Fig 3d)” value ([1]; wavelength 333.070, 11.6 uM Zn) was 125.333 and 108.991 and 107.827 and 116.743 and the “fluorescence intensity (Fig 3d)” value ([1]; wavelength 333.070, 17.2 uM) was 132.720 and 120.694 and 121.118 and 119.035. For the same molecule, the “fluorescence intensity (Fig 3d)” value ([1]; wavelength 333.070, 22.1 uM) was 132.619 and 121.520 and 120.252 and 122.459, the “fluorescence intensity (Fig 3d)” value ([1]; wavelength 333.070, 303 uM + 7 mM EDTA) was 43.562 and 54.895 and 44.695 and 52.661 and the “fluorescence intensity (Fig 3d)” value ([1]; wavelength 333.070, 308 uM) was 133.279 and 127.119 and 125.798 and 122.486. For the same molecule, the “fluorescence intensity (Fig 3d)” value ([1]; wavelength 334.000, 5.9 uM Zn) was 68.621 and 78.226, the “fluorescence intensity (Fig 3d)” value ([1]; wavelength 334.000, 11.6 uM Zn) was 126.789 and 111.115 and the “effect of ions on the nucleosome structure” value ([2]; NP nucleosomes without PARP2, 5 mM ions) was “minimally affect”. The “EPR centre of the new peak in the EPR profile” value ([2]; NP nucleosomes, PARP2 plus Zn2+) was 0.4, the “EPR centre of the structural state of nucleosomes” value ([2]; Nd nucleosomes) was 0.5 and the “EPR centre of the structural state of nucleosomes” value ([2]; Nm nucleosomes) was 0.4. The “Zn2+ concentration above which the structure of PARP2-nucleosome complexes is affected” value ([2]; PARP2 50 nM, NP nucleosomes) was “higher than 75 µM”, the “Zn2+ concentration at which all the complexes are converted to the altered conformation” value ([2]; PARP2 50 nM, NP nucleosomes) was 150 µM and the “effect of ions on the structure of nucleosomes in PARP2-nucleosome complexes” value ([2]; PARP2 50 nM, Zn2+ 0.3 mM, Ca2+ 5 mM or Mg2+ 5 mM) was “induce alterations in the structure of PARP2-nucleosome complexes”. For the same molecule, the “effect of Zn2+ on the affinity of PARP2 to nucleosomes” value ([2]; compared with EMSA in the absence of Zn2+) was “not significantly affected” and the “effect of ions on the CD spectrum / conformation of PARP2” value [3] was “small conformational changes”.
